Data set [1] has as its system SK-OV-3 cells. Briefly: Growth inhibition of SK-OV-3 cells, MTT assay after 72 hr. It is filed as cell-based, human. Particulars: conjugates delivered in C-m-HDLs, SEQ ID NO: 35 peptide, solvent lyophilization, FIG. 12A. As to the method: In this Example, the mole portions of components in the C-m-HDLs prepared by solvent lyophilization were POPC: egg SM: peptide: conjugate 5.6:2.4:2:1. 20 mM stock solutions of POPC and of egg SM were prepared in tert-butyl alcohol: water (8:2 v/v). […] Conjugates 20 and 30 were separately dissolved in tert-butyl alcohol: water (95:5) to a final concentration of 10 mM.
For C-m-HDL preparation, 2.8 mL of 20 mM POPC, 1.2 mL of 20 mM egg SM, 2 mL of 10 mM peptide, 1 mL of 10 mM conjugate, and 0.3 mL acetic acid were combined in a 20 mL glass vial. The combined solution was frozen at ≥−70° C. for ≥1 hr. The frozen vial was placed in the chamber of a lyophilizer set at a shelf temperature of −20° C. A vacuum between 100 to 150 mTorr was applied for ≥20 hr. The shelf temperature was raised to −10° C. and the vacuum was continued for ≥15 hr. The shelf temperature was then raised to 20° C. and the vacuum continued for 24 hr. The dried cake was dissolved in PBS to obtain C-m-HDLs. The uniformity of the C-m-HDLs was evaluated by SEC (Acclaim™ SEC-1000, 300 mm×4.6 mm column, 0.3 mL/min PBS mobile phase, 210 nm and 280 nm UV detection) and by dynamic light scattering. The phospholipid content was established with a commercially available, enzyme-based, colorimetric assay kit. Peptide and conjugate content were established by HPLC.
Two C-m-HDLs were prepared as above, containing either Conjugate 20 or Conjugate 30 were then tested for their growth inhibition activity against SK-OV-3 cells (ATCC). SK-OV-3 cells were grown in McCoy's-5A media supplemented with 10% fetal bovine serum and maintained in a 37° C. incubator under a 5% CO2 atmosphere. To assess growth inhibition, the growth medium of cells grown in 96-well plates was supplemented with various concentrations of C-m-HDL (cmpd 20), C-m-HDL (compd 30) or paclitaxel from a DMSO stock solution. The 96-well plates were incubated for 72 hr. The relative amount of live cells in each of the wells after 72 hr was determined with the MTT assay. […]
Background: Tetrazolium assays rely on reduction of a dye to a coloured formazan, in cell work by metabolically active cells.

Data set [2] has as its system female Sprague-Dawley rats. Briefly: Adrenal gland functionality after dosing: plasma corticosterone after ACTH challenge. Format: in vivo, rat. The following applies: paclitaxel in Cremophor EL/ethanol, 4 mg/kg intraperitoneally Days 1, 4, 7; FIG. 10. As to the method:
A paclitaxel stock solution was prepared by dissolving paclitaxel in 1:1 (v/v) Cremophor EL/ethanol (95%) to a final paclitaxel concentration of […] (C-E paclitaxel solution). Next, a paclitaxel solution suitable for dosing was prepared by combining one volume of the C-E paclitaxel solution with 3 volumes of 0.9 weight % NaCl. This solution is designated as “Control”.
C-m-HDL (cmpd 20) was prepared as per Example 12.
Eighteen (18) female Sprague-Dawley rats were randomly assigned to 3 groups of 6 animals each. All animals were lightly anesthetized using isoflurane and dosed intraperitoneally on Days 1, 4, and 7 with paclitaxel at 4 mg/kg in a dose volume of 1.5 mL/kg, or intravenously with C-m-HDL (cmpd 20) at 4 mg/kg or vehicle (saline) via the tail vein using a dose volume of 1.5 mL/kg. Group I received saline, Group 2 received paclitaxel, and Group 3 received C-m-HDL (cmpd 20). On Day 11, rats in each group were lightly anesthetized using isoflurane within their home cage to minimize potential stress responses. Blood (˜200 μL) was collected into K3EDTA tubes prior to ACTH challenge (baseline). Rats were then challenged with a single intraperitoneal injection of ACTH (ACTH 1-24, Sigma-Aldrich A0298-1922) in normal saline at […] in a dose volume of 2 mL/kg. […] Plasma corticosterone content was determined with a commercially available ELISA kit.

As for `CC(=O)O[C@H]1C(=O)[C@@]2(C)[C@H]([C@H](OC(=O)c3ccccc3)[C@]3(O)C[C@H](OC(=O)[C@H](OC(=O)Oc4cc(C)c5c(c4)CC[C@@](C)(CC/C=C(\C)CC/C=C(\C)CCC=C(C)C)O5)[C@@H](NC(=O)c4ccccc4)c4ccccc4)C(C)=C1C3(C)C)[C@]1(OC(C)=O)CO[C@@H]1C[C@@H]2O` [Conjugate 20, paclitaxel-delta-tocotrienol conjugate], the “SK-OV-3 growth inhibition activity, delta-tocotrienol versus delta-tocopherol anchor” value was “equivalent results” in data set [1] and “essentially equivalent” in data set [1] (listed as paclitaxel-delta-tocotrienol).

Regarding `CC(=O)O[C@H]1C(=O)[C@@]2(C)[C@H]([C@H](OC(=O)c3ccccc3)[C@]3(O)C[C@H](OC(=O)[C@H](O)[C@@H](NC(=O)c4ccccc4)c4ccccc4)C(C)=C1C3(C)C)[C@]1(OC(C)=O)CO[C@@H]1C[C@@H]2O` [paclitaxel], the “adrenal toxicity (plasma corticosterone after ACTH challenge)” value in data set [2] was “lack of adrenal toxicity”.

As to “Paclitaxel-δ-tocopherol conjugate with a cleavable carbonate bond [No. 82]”, the “SK-OV-3 growth inhibition activity, delta-tocotrienol versus delta-tocopherol anchor” value in data set [1] (listed as paclitaxel-delta-tocopherol) is reported as “essentially equivalent”; in data set [1] (listed as δ-tocopherol-paclitaxel), “equivalent results”.

The values are drawn from patent US20250345453A1, “CHEMOTHERAPEUTIC MICELLULAR NANOPARTICLES” (Peptinovo Biopharma Inc., priority 2024, published 2025).
